Counter-ions that a name gives are not always drawn. Like-named read-outs stand apart in the source and are kept apart here.
Tests used:
[1] = target: Recombinant human MAO-B (Homo sapiens (Human), UniProt P27338); experiment: Inhibition of human recombinant MAO-B; type: biochemical; settings: benzylamine 100 μM
Method: The specificity of the compounds of this invention was tested by determining their ability to inhibit MAO-B activities in vitro. Recombinant human MAO-B (0.06 mg/mL; Sigma Aldrich) was used as source of MAO-B enzyme activities. The assay was performed in a similar way as for human SSAO/VAP-1 (Example 28) except, the substrate benzylamine was used at 100 μM.

[2] = tested on: SiHa cervical cancer cells; settings: cited from earlier work
[3] = target: Human recombinant SSAO/VAP-1 (Homo sapiens (Human), UniProt Q16853); experiment: Inhibition of human recombinant SSAO/VAP-1; type: biochemical
Chain of Human recombinant SSAO/VAP-1 (Q16853 34-763): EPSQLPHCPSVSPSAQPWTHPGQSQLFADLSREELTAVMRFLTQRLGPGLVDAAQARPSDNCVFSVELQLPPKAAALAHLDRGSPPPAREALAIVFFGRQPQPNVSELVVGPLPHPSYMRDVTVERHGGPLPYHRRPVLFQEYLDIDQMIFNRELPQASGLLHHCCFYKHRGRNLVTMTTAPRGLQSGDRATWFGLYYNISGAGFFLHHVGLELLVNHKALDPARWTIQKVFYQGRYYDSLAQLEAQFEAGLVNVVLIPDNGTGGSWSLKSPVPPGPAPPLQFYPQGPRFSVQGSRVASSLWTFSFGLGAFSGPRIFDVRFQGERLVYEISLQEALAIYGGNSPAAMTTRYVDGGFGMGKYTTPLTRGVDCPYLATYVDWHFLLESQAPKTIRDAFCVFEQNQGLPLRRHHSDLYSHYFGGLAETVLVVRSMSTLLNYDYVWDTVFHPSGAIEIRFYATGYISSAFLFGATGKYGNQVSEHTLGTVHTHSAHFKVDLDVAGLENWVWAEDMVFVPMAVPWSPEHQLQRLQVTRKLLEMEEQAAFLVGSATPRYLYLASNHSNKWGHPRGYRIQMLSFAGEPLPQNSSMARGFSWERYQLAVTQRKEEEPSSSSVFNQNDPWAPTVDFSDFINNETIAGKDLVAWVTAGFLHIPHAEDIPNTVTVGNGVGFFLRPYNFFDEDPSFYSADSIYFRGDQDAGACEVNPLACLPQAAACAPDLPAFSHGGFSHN
Procedure, shortened: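 Purified enzyme (residues 34-763, expressed in CHO Lec8 cells; 0.25 μg/mL in 0.1 M sodium phosphate pH 7.4) was preincubated with compound 30 min at 37 °C. An added mix held 600 μM benzylamine, 120 μM Amplex Red and 1.5 U/mL HRP. Fluorescence (ex 565/em 590 nm) was read every 2.5 min for 30 min at 37 °C, and IC50 was derived from kinetic slopes over 4-11-point curves.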

[4] = target: surgery induced systemic LOX (Mus musculus (Mouse), UniProt P28301); settings: in vivo; cited from earlier work
Chain of surgery induced systemic LOX (P28301 163-411): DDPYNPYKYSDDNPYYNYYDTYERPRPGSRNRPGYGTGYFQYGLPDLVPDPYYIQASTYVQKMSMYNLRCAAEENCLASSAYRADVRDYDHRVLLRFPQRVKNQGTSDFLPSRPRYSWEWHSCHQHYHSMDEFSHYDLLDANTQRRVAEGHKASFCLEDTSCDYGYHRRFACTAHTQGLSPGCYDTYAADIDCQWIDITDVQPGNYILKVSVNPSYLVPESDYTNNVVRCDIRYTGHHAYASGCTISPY

[5] = target: Bovine LOX (Bos taurus (Bovine), UniProt P33072); experiment: LOX inhibition, Amplex Red oxidation assay; type: biochemical; settings: 30 min preincubation at 37 °C, putrescine substrate
Chain of Bovine LOX (P33072 170-418): as the sequence (P28301 163-411) above, with S10T, N31Y, S64A, A84X, N142S, A188N, Q202K, T224S, D231E counted along it
Procedure, shortened: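 Bovine LOX in 1.2 M urea, 50 mM sodium borate pH 8.2, with 1 μM mofegiline and 0.5 mM pargyline unless recombinant or purified. The added mix held putrescine at twice KM (20 mM for LOX), 120 μM Amplex Red and 1.5 U/mL HRP.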

[6] = in vivo; cited from earlier work
[7] = tested on: desmoplastic ovarian tumour; settings: mouse, in vivo; cited from earlier work
[8] = target: LOX (Rattus norvegicus (Rat), UniProt P16636); settings: CIA rats; cited from earlier work
Chain of LOX (P16636 163-411): as the sequence (P28301 163-411) above, with P27S, N31H, N142S, T224S, D231E counted along it

[9] = target: T1, LOXL2 (Homo sapiens (Human), UniProt Q9Y4K0); experiment: LOXL2 inhibition, Amplex Red oxidation assay; type: biochemical; settings: 30 min preincubation at 37 °C, putrescine substrate
T1 sequence (Q9Y4K0 26-774): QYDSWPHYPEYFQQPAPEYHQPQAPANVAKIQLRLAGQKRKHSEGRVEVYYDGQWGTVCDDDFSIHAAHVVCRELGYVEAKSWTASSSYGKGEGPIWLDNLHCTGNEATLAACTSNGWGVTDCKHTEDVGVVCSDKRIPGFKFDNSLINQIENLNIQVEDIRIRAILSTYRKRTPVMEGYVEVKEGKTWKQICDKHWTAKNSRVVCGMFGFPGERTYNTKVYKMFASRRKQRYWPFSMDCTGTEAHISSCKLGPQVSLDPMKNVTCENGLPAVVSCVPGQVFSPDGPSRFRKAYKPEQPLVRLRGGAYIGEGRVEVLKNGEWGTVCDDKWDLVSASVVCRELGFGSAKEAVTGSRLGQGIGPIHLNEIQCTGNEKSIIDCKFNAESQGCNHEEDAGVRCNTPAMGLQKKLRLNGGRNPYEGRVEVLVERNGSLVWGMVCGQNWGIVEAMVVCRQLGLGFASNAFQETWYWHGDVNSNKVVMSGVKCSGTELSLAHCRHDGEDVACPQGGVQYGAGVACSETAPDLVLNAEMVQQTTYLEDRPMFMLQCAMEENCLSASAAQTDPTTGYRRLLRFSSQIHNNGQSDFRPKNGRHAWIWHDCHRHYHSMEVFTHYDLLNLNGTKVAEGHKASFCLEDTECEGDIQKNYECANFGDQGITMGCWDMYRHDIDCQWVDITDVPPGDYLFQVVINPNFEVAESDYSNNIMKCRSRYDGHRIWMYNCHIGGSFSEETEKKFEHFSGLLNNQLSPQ
Procedure, shortened: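 LOXL2 in 1.2 M urea, 50 mM sodium borate pH 8.2 was preincubated with compound (11-point curve) for 30 min at 37 °C; mofegiline/pargyline were added only for non-purified enzyme. Reaction mix held 2× KM putrescine (10 mM), 120 μM Amplex Red and 1.5 U/mL HRP. H2O2 fluorescence (ex 565/em 590 nm) was read over 30 min, and IC50 came from slopes.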

[10] = tested on: MMTV-PyMT breast cancer; settings: in vivo; cited from earlier work
[11] = tested on: GATA1low mice; experiment: Mouse model of primary myelofibrosis; type: in vivo; settings: 15 mg/kg i.p. four times a week for 10 weeks
Method: Fifteen to sixteen week old GATA1low male and female mice were intra-peritoneal injected with either vehicle (olive oil), or Compound 19 at a dose of 15 mg/kg, four times a week for 10 weeks. The mice were then sacrificed and the spleens and femurs were harvested for histology and analysis (FIGS. 7(a-e) and FIGS. 8(a-d)).

[12] = target: LOXL1 (Homo sapiens (Human), UniProt Q08397); experiment: Jump dilution experiment, sustained inhibition of LOXL1; type: biochemical; settings: jump dilution after 40 min at 37 °C with 10× or 30× IC50; vs non-inhibited controls;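 note: 30× IC50 used only where needed so inhibitor exceeds enzyme concentration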
Chain of LOXL1 (Q08397 96-574, species assumed): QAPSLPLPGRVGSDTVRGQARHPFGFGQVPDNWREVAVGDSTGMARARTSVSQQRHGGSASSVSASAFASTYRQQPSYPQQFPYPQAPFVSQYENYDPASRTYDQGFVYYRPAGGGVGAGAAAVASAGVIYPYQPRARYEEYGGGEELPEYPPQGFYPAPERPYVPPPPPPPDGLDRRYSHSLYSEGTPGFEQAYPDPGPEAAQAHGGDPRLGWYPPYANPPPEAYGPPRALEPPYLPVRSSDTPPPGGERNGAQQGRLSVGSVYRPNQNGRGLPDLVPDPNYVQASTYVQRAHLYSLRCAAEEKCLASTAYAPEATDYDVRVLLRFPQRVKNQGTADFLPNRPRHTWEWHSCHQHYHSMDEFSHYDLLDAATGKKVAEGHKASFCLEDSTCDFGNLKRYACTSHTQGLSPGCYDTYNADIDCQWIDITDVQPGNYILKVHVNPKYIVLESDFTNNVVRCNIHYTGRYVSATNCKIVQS
Method: (§1) Jump Dilution experiment: The assay was developed using a 96 well format and the starting enzyme concentration was set 100 times higher than for the inhibition studies. […] After the incubation, the mixture was diluted 50× in assay buffer, followed by a further 2× dilution in Amplex Red-horseradish peroxidase-putrescine reaction mix (same as per the inhibition studies) prior to the fluorescent measurement. Results were expressed in % recovery of the signal after a specified time by comparison with non-inhibited controls.

[13] = target: T1, LOXL2; experiment: Jump dilution experiment, sustained inhibition of LOXL2; type: biochemical; settings: jump dilution after 40 min at 37 °C with 10× or 30× IC50; vs non-inhibited controls;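 note: 30× IC50 used only where needed so inhibitor exceeds enzyme concentration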
Method: as §1

[14] = target: rhSSAO (Homo sapiens (Human), UniProt Q16853); experiment: Measurement of substrate turnover by SSAO; type: biochemical; settings: compound 2.5 mM, relative to background (dimethyl sulfoxide only)
Chain of rhSSAO (Q16853 whole entry): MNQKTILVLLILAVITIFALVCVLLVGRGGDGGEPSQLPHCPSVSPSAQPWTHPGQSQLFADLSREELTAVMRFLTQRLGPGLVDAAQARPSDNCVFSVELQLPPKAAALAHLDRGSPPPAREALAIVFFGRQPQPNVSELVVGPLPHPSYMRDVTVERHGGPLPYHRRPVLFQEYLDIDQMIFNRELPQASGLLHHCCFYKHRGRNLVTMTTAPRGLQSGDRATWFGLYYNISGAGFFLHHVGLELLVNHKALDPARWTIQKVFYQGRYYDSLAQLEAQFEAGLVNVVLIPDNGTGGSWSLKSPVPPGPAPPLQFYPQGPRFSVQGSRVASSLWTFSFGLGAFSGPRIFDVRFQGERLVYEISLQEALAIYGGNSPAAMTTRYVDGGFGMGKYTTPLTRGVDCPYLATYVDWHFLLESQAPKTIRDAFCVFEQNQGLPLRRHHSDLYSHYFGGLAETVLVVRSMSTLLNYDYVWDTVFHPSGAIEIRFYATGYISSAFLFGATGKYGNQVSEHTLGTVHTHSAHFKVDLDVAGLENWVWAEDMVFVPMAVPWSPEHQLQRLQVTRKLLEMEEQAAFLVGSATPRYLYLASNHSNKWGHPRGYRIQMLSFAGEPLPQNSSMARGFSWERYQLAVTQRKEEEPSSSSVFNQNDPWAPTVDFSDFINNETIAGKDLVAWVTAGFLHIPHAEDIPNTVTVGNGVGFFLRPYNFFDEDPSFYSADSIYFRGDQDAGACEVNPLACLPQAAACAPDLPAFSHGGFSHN
Method: In brief, the assay employed determines the substrate propensity of a compound relative to background (dimethyl sulfoxide only). Compound oxidation by rhSSAO was measured by fluorometric assay (Holt and Palcic, 2006). Briefly, rhSSAO was incubated for 2 hours at 37° C. in HEPES buffer before the addition of an equal volume of Amplex Red ([…]), horseradish peroxidase (4 U/ml), and Compound (2.5 mM) in the same buffer. The kinetics of the formation of resorufin was measured immediately using Optima reader (BMG Labtech GmbH, Ortenburg, Germany), at 37° C.

[15] = 30 min preincubation at 37 °C, benzylamine 600 μM, read-out: SSAO/VAP-1 Activity IC50

Chain of Recombinant human MAO-B (P27338 whole entry): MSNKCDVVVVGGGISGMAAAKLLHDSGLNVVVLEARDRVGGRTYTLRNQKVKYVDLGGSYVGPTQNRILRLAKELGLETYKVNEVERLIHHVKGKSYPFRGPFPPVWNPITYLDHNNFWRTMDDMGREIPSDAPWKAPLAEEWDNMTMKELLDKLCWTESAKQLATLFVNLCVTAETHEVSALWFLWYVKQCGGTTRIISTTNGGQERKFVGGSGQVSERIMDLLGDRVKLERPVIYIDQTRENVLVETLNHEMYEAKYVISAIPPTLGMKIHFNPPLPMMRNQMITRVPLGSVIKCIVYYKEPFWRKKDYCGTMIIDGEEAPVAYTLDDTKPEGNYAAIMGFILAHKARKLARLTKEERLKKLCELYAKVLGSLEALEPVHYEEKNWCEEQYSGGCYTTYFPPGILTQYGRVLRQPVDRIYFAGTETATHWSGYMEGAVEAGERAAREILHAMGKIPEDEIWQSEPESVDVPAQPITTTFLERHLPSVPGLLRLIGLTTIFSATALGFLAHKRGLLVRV

SMILES	IC50 [1]	increased invasion in vitro under hypoxic/anoxic conditions [2]	IC50 [3, 15]	metastasis and survival after surgery induced systemic LOX [4]	IC50 [5]	tolerability in human patients with scleroderma [6]	lung metastasis [7]	survival [7]	inflammation, synovial hyperplasia, angiogenesis and expression of MMP-2 and MMP-9 [8]	IC50 [9]	metastasis and survival [10]	Bone marrow (BM) and splenic fibrosis ([11]; vs vehicle)	Morphologic BM megakaryocytes (MKs) on H&E stain ([11]; p<0.001 vs vehicle)	platelet count post-treatment ([11]; p<0.05 vs vehicle)	spleen weights adjusted to body weight ([11]; p<0.05 vs vehicle)	LOXL1 - Recovery of activity. (%) [12]	LOXL2 - Recovery of activity. (%) [13]	IC50 ([3]; second Table 6 (Example 38), read-out: Recombinant human SSAO (rhSSAO) inhibition (IC50))	Substrate activity for rhSSAO [14]
N#CCCN [BAPN, β-aminopropionitrile]	> 30 µM	repressed	> 30 µM	reducing metastasis and increasing survival	< 10 µM	poorly tolerated	decreased	significantly increased	attenuate	< 1 µM	–	–	–	–	–	–	–	–	–
CS(=O)(=O)c1cc(-c2ccccc2)cc(S(=O)(=O)c2ccc(CN)s2)c1 [CCT365623]	–	–	–	–	–	–	–	–	–	–	reduce metastasis and increase survival	–	–	–	–	–	–	–	–
NC/C=C(\F)CS(=O)(=O)c1ccccc1Cl [Compound 19, (Z)-4-(2-chlorophenylsulfonyl)-3-fluorobut-2-en-1-amine hydrochloride]	> 30 µM	–	> 30 µM	–	< 10 µM	–	–	–	–	< 1 µM	–	significantly decreased	24.65±0.6 per 20× field	77.5±4.4 K/uL	242.25 ± 18 mg	7.8%	7.9%	–	–
NC/C=C(\F)CS(=O)(=O)c1cccnc1 [Compound 31, (Z)-3-fluoro-4-(pyridin-3-ylsulfonyl)but-2-en-1-amine dihydrochloride]	–	–	> 30 µM	–	< 10 µM	–	–	–	–	< 1 µM	–	–	–	–	–	8.2%	–	27 µM	no significant turnover

— US12178791B2, “Haloallylamine sulfone derivative inhibitors of lysyl oxidases and uses thereof” (Syntara Limited, priority 2018, dated 2024)
